Reference: patent US20250179059A1 (The Regents of the University of California, priority 2021, published 2025)

How the values were obtained:
[1] = test system: human SKM-1 acute myeloid leukemia cells; assay: SKM-1 antiproliferation cell-based assay (ATPlite); settings: Homo sapiens, SKM-1, SKM-1 antiproliferation assay
In short: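 Log-phase cells in RPMI 1640/15% FBS were seeded at 34722 cells/mL and exposed for 4 days to nine-concentration DMSO serial dilutions in triplicate. Viability was read as ATP luminescence (ATPlite 1step), and IC50 values came from variable-slope non-linear regression.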

[2] = target: T1, human BRD4 bromodomain II (Homo sapiens, UniProt O60885); assay: Bromodomain binding assay (AlphaScreen), BRD4 BDII; settings: BRD4 BDII AlphaScreen assay; read-out: BRD4 BD2 IC50
T1 construct: human BRD4 bromodomain II [based on Genbank NM_058243, residues 349-460]; host or cells: E. coli
In short: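 E. coli-expressed N-terminal His6-tagged human BRD4 BDII (residues 349-460) or BDI (residues 44-170) was preincubated 30 min at room temperature with compound (10-point, 3-fold) in pH 7.5 HEPES buffer, 1% DMSO. Displacement of biotinylated tetra-acetylated H4 1-21 peptide was read by AlphaScreen, and IC50 came from curve fitting.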

| Compound | GI50 [1] | IC50 [2] |
| --- | --- | --- |
| COc1ncc(-c2nc(C)cc(-c3ccc(-n4ccn(C)c4=O)c(Cl)c3)c2O)cc1N1CCN(C(C)(C)C)CC1 [Example 959, 1-(4-(5′-(4-(tert-butyl)piperazin-1-yl)-3-hydroxy-6′-methoxy-6-methyl-[2,3′-bipyridin]-4-yl)-2-chlorophenyl)-3-methyl-1,3-dihydro-2H-imidazol-2-one] | 0.3 to 30 nM | 1 to 10 nM |
| COc1ncc(-c2cc(F)cc(-c3ccc(-n4ccn(C)c4=O)c(Cl)c3)c2O)cc1N1CCN(C(C)(C)CO)CC1 [Example 960, 1-(3-chloro-5′-fluoro-2′-hydroxy-3′-(5-(4-(1-hydroxy-2-methylpropan-2-yl)piperazin-1-yl)-6-methoxypyridin-3-yl)-[1,1′-biphenyl]-4-yl)-3-methyl-1H-imidazol-2(3H)-one] | 0.3 to 30 nM | 1 to 10 nM |
| CNc1ncc(-c2nc(C)cc(-c3ccc(-n4ccn(C)c4=O)c(Cl)c3)c2O)cc1N1CCN(C(C)(C)C)CC1 [Example 963, 1-(4-(5′-(4-(tert-butyl)piperazin-1-yl)-3-hydroxy-6-methyl-6′-(methylamino)-[2,3′-bipyridin]-4-yl)-2-chlorophenyl)-3-methyl-1H-imidazol-2(3H)-one] | 0.3 to 30 nM | 1 to 10 nM |
| CC(C)N1CCC[C@@]12CCN(c1cccc(-c3cc(F)cc(-c4ccc(-n5ccn(C)c5=O)c(Cl)c4)c3O)c1)C2 [Example 966, (S)-1-(3-chloro-5′-fluoro-2′-hydroxy-3″-(1-isopropyl-1,7-diazaspiro[4.4]nonan-7-yl)-[1,1′:3′,1″-terphenyl]-4-yl)-3-methyl-1,3-dihydro-2H-imidazol-2-one] | 30 to 300 nM | 1 to 10 nM |
| CC(C)N1CCCC12CCN(c1cc(-c3cc(F)cc(-c4ccc(-n5ccn(C)c5=O)c(Cl)c4)c3O)cnc1N)C2 (centres unmarked) [Example 968, 1-(3′-(6-amino-5-(1-isopropyl-1,7-diazaspiro[4.4]nonan-7-yl)pyridin-3-yl)-3-chloro-5′-fluoro-2′-hydroxy-[1,1′biphenyl]-4-yl)-3-methyl-1H-imidazol-2(3H)-one] | 0.3 to 30 nM | 1 to 10 nM |

Further lines, results first:

| GI50 [1] | IC50 [2] | Compound |
| --- | --- | --- |
| 0.3 to 30 nM | 1 to 10 nM | Cc1cc(-c2ccc(-n3ccn(C)c3=O)c(Cl)c2)c(O)c(-c2cnc(C)c(N3CCN(C(C)(C)C)CC3)c2)n1 [Example 961, 1-(4-(5′-(4-(tert-butyl)piperazin-1-yl)-3-hydroxy-6,6′-dimethyl-[2,3′-bipyridin]-4-yl)-2-chlorophenyl)-3-methyl-1H-imidazol-2(3H)-one] |
| 0.3 to 30 nM | 1 to 10 nM | Cc1cc(-c2ccc(-n3ccn(C)c3=O)c(Cl)c2)c(O)c(-c2cnc(N)c(N3CCN(C(C)(C)C)CC3)c2)n1 [Example 962, 1-(4-(6′-amino-5′-(4-(tert-butyl)piperazin-1-yl)-3-hydroxy-6-methyl-[2,3′-bipyridin]-4-yl)-2-chlorophenyl)-3-methyl-1H-imidazol-2(3H)-one] |
| 0.3 to 30 nM | 0.01 to 1 nM | Cc1cc(-c2ccc(-n3ccn(C)c3=O)c(Cl)c2)c(O)c(-c2cnc(N(C)C)c(N3CCN(C(C)(C)C)CC3)c2)n1 [Example 964, 1-(4-(5′-(4-(tert-butyl)piperazin-1-yl)-6′-(dimethylamino)-3-hydroxy-6-methyl-[2,3′-bipyridin]-4-yl)-2-chlorophenyl)-3-methyl-1H-imidazol-2(3H)-one] |
| 0.3 to 30 nM | 1 to 10 nM | CNc1ncc(-c2cc(F)cc(-c3ccc(-n4ccn(C)c4=O)c(Cl)c3)c2O)cc1N1CCC2(CCN2C(C)C)C1 (centres unmarked) [Example 965, 1-{3-Chloro-5′-fluoro-2′-hydroxy-3′-[5-(1-isopropyl-1,6-diaza-spiro[3.4]oct-6-yl)-6-methylamino-pyridin-3-yl]-biphenyl-4-yl}-3-methyl-1,3-dihydro-imidazol-2-one] |
| 30 to 300 nM | 1 to 10 nM | CC(C)N1CCC[C@]12CCN(c1cccc(-c3cc(F)cc(-c4ccc(-n5ccn(C)c5=O)c(Cl)c4)c3O)c1)C2 [Example 967, (R)-1-(3-chloro-5′-fluoro-2′-hydroxy-3″-(1-isopropyl-1,7-diazaspiro[4.4]nonan-7-yl)-[1,1′:3′,1″-terphenyl]-4-yl)-3-methyl-1,3-dihydro-2H-imidazol-2-one] |
